Patent US11311522B1 (Cavion, Inc., priority 2018, dated 2022)

Key:
[1] = 90-day oral toxicology in rats; details: both, rat, in vivo
[2] = PN002/Part I: safety and tolerability; type: in vivo, human
Protocol: All adverse events were mild or moderate in intensity. No serious adverse events were reported. […] Treatment periods were separated by a minimum 1-week washout period after administration of the 2 mg dose in Period 1 and by a minimum 2-week washout after subsequent treatment periods. Clinical safety was monitored throughout the study by adverse events, clinical laboratory tests, vital signs, ECGs, and ECG telemetry. *The study was planned to include 8 subjects. A ninth subject was randomized to replace a subject who was discontinued after Period 1 (because of a prolonged QTc interval after administration of the 2 mg dose, which was considered by the investigator to be unrelated to the study drug). […] The most frequently reported adverse events were relaxation, fuzzy head, headache, lightheadedness, dizziness, and mood alteration, all of which were transient and generally mild or moderate in severity.

[3] = tested on: T1, major CYP isoforms (CYP1A2, CYP3A4, CYP2C8, CYP2C9, CYP2C19, CYP2D6, CYP2B6); experiment: CYP inhibition in human liver microsomes; type: in vitro ADME; details: human liver microsomes; human microsomes
T1 construct: other: human liver microsomes; other: human microsomes

[4] = tested on: T2, CYP3A4, CYP2C8, CYP2C9, CYP2D6, CYP1A2, CYP2C19, CYP2B6; experiment: CYP inhibition in human liver microsomes; type: in vitro ADME; details: human, human liver microsomes
T2 construct: other: human liver microsomes; other: human microsomes

## CC(C)c1ccc(CC(=O)N[C@H](C)c2ccc(OCC(F)(F)F)cn2)cc1 [CX-8998]
[1]; Sprague-Dawley, po
  NOAEL at 90 days: 300 mg/kg/day
[1]; oral
  NOAEL at 90 days: 300 mg/kg/day
[2]; 2 mg
  At least 1 adverse event: 5 (71.4) n (%)
  Breathing difficult: 0 n (%)
  Dizziness: 0 n (%)
  Dizziness upon standing: 0 n (%)
  Dry mouth: 0 n (%)
  Dry throat: 0 n (%)
  Eye Disorders: 0 n (%)
  Feeling drunk: 0 n (%)
  Feeling hot: 0 n (%)
  Feeling of relaxation: 1 (14.3) n (%)
  Feeling of warmth: 0 n (%)
  Floating feeling: 1 (14.3) n (%)
  Fuzzy head: 0 n (%)
  Gastrointestinal Disorders: 1 (14.3) n (%)
  Headache: 2 (28.6) n (%)
  Lightheadedness: 0 n (%)
  Nasal congestion: 0 n (%)
  Nervous System Disorders: 2 (28.6) n (%)
  Paraesthesia of fingers: 0 n (%)
  Respiratory, Thoracic and Mediastinal Disorders: 1 (14.3) n (%)
  Tiredness: 0 n (%)
  Vision blurred: 0 n (%)
  Visual disturbance: 0 n (%)
[2]; 4 mg
  At least 1 adverse event: 5 (83.3) n (%)
  Breathing difficult: 0 n (%)
  Dizziness: 0 n (%)
  Dizziness upon standing: 0 n (%)
  Dry mouth: 0 n (%)
  Dry throat: 0 n (%)
  Eye Disorders: 1 (16.7) n (%)
  Feeling drunk: 0 n (%)
  Feeling hot: 0 n (%)
  Feeling of relaxation: 1 (16.7) n (%)
  Feeling of warmth: 0 n (%)
  Floating feeling: 1 (16.7) n (%)
  Fuzzy head: 1 (16.7) n (%)
  Headache: 3 (50.0) n (%)
  Lightheadedness: 1 (16.7) n (%)
  Nasal congestion: 1 (16.7) n (%)
  Nervous System Disorders: 5 (83.3) n (%)
  Paraesthesia of fingers: 0 n (%)
  Respiratory, Thoracic and Mediastinal Disorders: 1 (16.7) n (%)
  Tiredness: 1 (16.7) n (%)
  Vision blurred: 1 (16.7) n (%)
  Visual disturbance: 0 n (%)
[2]; 8 mg
  At least 1 adverse event: 6 (100) n (%)
  Breathing difficult: 1 (16.7) n (%)
  Dizziness: 2 (33.3) n (%)
  Dizziness upon standing: 1 (16.7) n (%)
  Dry mouth: 4 (66.7) n (%)
  Dry throat: 1 (16.7) n (%)
  Eye Disorders: 2 (33.3) n (%)
  Feeling drunk: 0 n (%)
  Feeling hot: 2 (33.3) n (%)
  Feeling of relaxation: 0 n (%)
  Feeling of warmth: 0 n (%)
  Floating feeling: 1 (16.7) n (%)
  Fuzzy head: 2 (33.3) n (%)
  Gastrointestinal Disorders: 4 (66.7) n (%)
  Headache: 3 (50.0) n (%)
  Lightheadedness: 3 (50.0) n (%)
  Nasal congestion: 1 (16.7) n (%)
  Nervous System Disorders: 6 (100.0) n (%)
  Paraesthesia of fingers: 0 n (%)
  Respiratory, Thoracic and Mediastinal Disorders: 3 (50.0) n (%)
  Tiredness: 2 (33.3) n (%)
  Vision blurred: 1 (16.7) n (%)
  Visual disturbance: 1 (16.7) n (%)
[2]; 12 mg
  At least 1 adverse event: 5 (83.3) n (%)
  Breathing difficult: 0 n (%)
  Dizziness: 0 n (%)
  Dizziness upon standing: 0 n (%)
  Dry mouth: 1 (16.7) n (%)
  Dry throat: 0 n (%)
  Eye Disorders: 1 (16.7) n (%)
  Feeling drunk: 1 (16.7) n (%)
  Feeling hot: 0 n (%)
  Feeling of relaxation: 2 (33.3) n (%)
  Feeling of warmth: 0 n (%)
  Floating feeling: 0 n (%)
  Fuzzy head: 0 n (%)
  Headache: 3 (50.0) n (%)
  Lightheadedness: 0 n (%)
  Nasal congestion: 0 n (%)
  Nervous System Disorders: 4 (66.7) n (%)
  Paraesthesia of fingers: 0 n (%)
  Respiratory, Thoracic and Mediastinal Disorders: 1 (16.7) n (%)
  Tiredness: 0 n (%)
  Vision blurred: 1 (16.7) n (%)
  Visual disturbance: 0 n (%)
[2]; 18 mg
  At least 1 adverse event: 6 (100.0) n (%)
  Breathing difficult: 2 (33.3) n (%)
  Dizziness: 2 (33.3) n (%)
  Dizziness upon standing: 1 (16.7) n (%)
  Dry mouth: 0 n (%)
  Dry throat: 1 (16.7) n (%)
  Eye Disorders: 2 (33.3) n (%)
  Feeling drunk: 1 (16.7) n (%)
  Feeling hot: 2 (33.3) n (%)
  Feeling of relaxation: 2 (33.3) n (%)
  Feeling of warmth: 2 (33.3) n (%)
  Floating feeling: 2 (33.3) n (%)
  Fuzzy head: 2 (33.3) n (%)
  Gastrointestinal Disorders: 3 (50.0) n (%)
  Headache: 2 (33.3) n (%)
  Lightheadedness: 1 (16.7) n (%)
  Nasal congestion: 0 n (%)
  Nervous System Disorders: 6 (100.0) n (%)
  Paraesthesia of fingers: 2 (33.3) n (%)
  Respiratory, Thoracic and Mediastinal Disorders: 2 (33.3) n (%)
  Tiredness: 1 (16.7) n (%)
  Vision blurred: 0 n (%)
  Visual disturbance: 2 (33.3) n (%)
[2]; any dose
  At least 1 adverse event: 9 (100.0) n (%)
  Breathing difficult: 2 (22.2) n (%)
  Dizziness: 3 (33.3) n (%)
  Dizziness upon standing: 2 (22.2) n (%)
  Dry mouth: 4 (44.4) n (%)
  Dry throat: 2 (22.2) n (%)
  Eye Disorders: 4 (44.4) n (%)
  Feeling drunk: 2 (22.2) n (%)
  Feeling hot: 2 (22.2) n (%)
  Feeling of relaxation: 5 (55.6) n (%)
  Feeling of warmth: 2 (22.2) n (%)
  Floating feeling: 2 (22.2) n (%)
  Fuzzy head: 3 (33.3) n (%)
  Gastrointestinal Disorders: 6 (66.7) n (%)
  Headache: 7 (77.8) n (%)
  Lightheadedness: 4 (44.4) n (%)
  Nasal congestion: 2 (22.2) n (%)
  Nervous System Disorders: 8 (88.8) n (%)
  Paraesthesia of fingers: 2 (22.2) n (%)
  Respiratory, Thoracic and Mediastinal Disorders: 4 (44.4) n (%)
  Tiredness: 3 (33.3) n (%)
  Vision blurred: 3 (33.3) n (%)
  Visual disturbance: 3 (33.3) n (%)
[2]; single doses up to 18 mg
  Tolerability: generally well tolerated
[3]
  IC50: > 25 µM
[4]
  IC50: 20 to 25 µM
